Reference: ChEMBL document CHEMBL1122462, “Potential antiatherosclerotic agents. 4. [(Functionalized-alkyl)amino]benzoic acid analogues of cetaben” (1983)

Key:
[1] = target: T1, Sterol O-acyltransferase 1 (Rattus norvegicus) (UniProt O70536); test: In vitro inhibitory activity against acyl coenzyme A:cholesterol acyltransferase; parameters: concentration or dose not given beside the values; conditions: concentration not given here
T1 sequence (whole entry): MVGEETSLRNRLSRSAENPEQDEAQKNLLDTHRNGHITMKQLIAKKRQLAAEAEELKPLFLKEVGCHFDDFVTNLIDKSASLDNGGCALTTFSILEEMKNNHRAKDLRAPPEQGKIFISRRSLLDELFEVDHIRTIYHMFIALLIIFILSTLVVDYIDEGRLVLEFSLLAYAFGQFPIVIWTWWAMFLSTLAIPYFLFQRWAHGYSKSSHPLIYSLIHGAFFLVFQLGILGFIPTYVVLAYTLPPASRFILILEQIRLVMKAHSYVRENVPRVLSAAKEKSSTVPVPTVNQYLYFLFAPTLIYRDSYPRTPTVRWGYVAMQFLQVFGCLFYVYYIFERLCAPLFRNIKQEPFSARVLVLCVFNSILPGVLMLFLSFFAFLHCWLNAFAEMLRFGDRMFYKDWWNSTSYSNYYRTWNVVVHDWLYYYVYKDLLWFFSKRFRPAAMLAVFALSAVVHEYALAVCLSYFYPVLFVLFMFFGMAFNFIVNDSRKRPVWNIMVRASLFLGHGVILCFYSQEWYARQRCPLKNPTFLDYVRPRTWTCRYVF

Rattus norvegicus [2] = test: In vivo sterol lowering activity, dosed as 0.03 % of the diet; assay type: functional
Rattus norvegicus [3] = test: In vivo Sterol lowering activity at dose as 0.01% of the diet; assay type: functional
Rattus norvegicus [4] = test: In vivo sterol lowering activity at dose of 0.10 % of the diet; assay type: functional
Rattus norvegicus [5] = test: In vivo Triglyceride lowering activity at dose as 0.01 % of the diet; assay type: functional
Rattus norvegicus [6] = test: In vivo Triglyceride lowering activity at a dose of 0.10 % of the diet; assay type: functional
Rattus norvegicus [7] = test: In vivo Triglyceride lowering activity at dose as 0.03 % of the diet; assay type: functional

SMILES | inhibition [1] [%] | serum sterol level, percent of control (Rattus norvegicus [2]) [%] | serum sterol level, percent of control (Rattus norvegicus [3]) [%] | serum sterol level, % of control (Rattus norvegicus [4]) [%] | serum triglyceride level (% of control) (Rattus norvegicus [5]) [%] | serum triglyceride level (% of control) (Rattus norvegicus [6]) [%] | triglyceride lowering activity (Rattus norvegicus [7]) [%]
CCCCCCCCCCC(N)CCCCCNc1ccc(C(=O)[O-])cc1.[Na+] (stereo not given) | 7 | 117 | 100 | 98 | 68 | 120 | 107
O=C(O)c1ccc(NCCCCCCCCCCCBr)cc1 | 8 | <86 | 99 | 100 | 78 | <55 | <65
O=C(O)c1ccc(NCCCCCCCCCCCNc2ccc(C(=O)O)cc2)cc1 | < 30 | 94 | 99 | 87 | <68 | 84 | 85
O=C(O)c1ccc(NCC(F)(F)C(F)(F)C(F)(F)C(F)(F)C(F)(F)C(F)(F)C(F)(F)F)cc1 | < 42 | <66 | <87 | <59 | <51 | <31 | <40
CCCCCCCCCCC(C#N)CCCCCNc1ccc(C(=O)O)cc1 (stereo not given) | < 64 | <85 | 96 | 83 | 75 | <50 | <66
CCCCCC(=O)CCCCCCCCCCNc1ccc(C(=O)OCC)cc1 | < 44 | 100 | 99 | 89 | <64 | <42 | <58
COCCCCCCCCCCCCCCCCNc1ccc(C(=O)O)cc1 | < 43 | 96 | 97 | <86 | 76 | <52 | <73
CCOC(=O)c1ccc(NCCCCCCCCCCC(F)(F)F)cc1 | < 24 | 88 | <86 | <87 | <74 | <46 | <61
O=C(O)c1ccc(NCCCCCCCCCCCO)cc1 | < 30 | 95 | 93 | 99 | 111 | 78 | 101
CCOC(=O)c1ccc(NCCCCCCCCCCCCCCC(C)(C)C)cc1 | 5 | <78 | <69 | <68 | 79 | <44 | <71
CCCCCCCCCCC(C#N)CCCCCNc1ccc(C(=O)OCC)cc1 (stereo not given) | < 69 | 97 | 100 | 87 | <66 | <51 | <69
CCCC[S+]([O-])CCCCCCCCCCCNc1ccc(C(=O)O)cc1 (stereo not given) | < 15 | 95 | 106 | 91 | 87 | <66 | 94
CC(C)(C)CCCCCCCCCCCCCCNc1ccc(C(=O)O)cc1 |  | <53 | <69 | <48 | <59 | <20 | <42
O=C(O)CCCCCCCCCCCCCCCNc1ccc(C(=O)O)cc1 |  | 92 | 101 | 92 | 124 | 96 | 90
CCCCCCCCCCCCCCCCN(CS(=O)(=O)[O-])c1ccc(C(=O)O)cc1.[Na+] |  | <87 | 91 | <72 | 79 | <49 | <57
C[Si](C)(C)CCCNc1ccc(C(=O)O)cc1 |  | 90 | 100 | <82 | <69 | <47 | <58

The next lines start with results.

inhibition [1] [%] | SMILES | serum sterol level, percent of control (Rattus norvegicus [2]) [%] | serum sterol level, percent of control (Rattus norvegicus [3]) [%] | serum sterol level, % of control (Rattus norvegicus [4]) [%] | serum triglyceride level (% of control) (Rattus norvegicus [5]) [%] | serum triglyceride level (% of control) (Rattus norvegicus [6]) [%] | triglyceride lowering activity (Rattus norvegicus [7]) [%]
< 73 | Br.CCOC(=O)c1ccc(NCCCCCCCCCCCSC(=N)N)cc1 | 107 | 100 | 98 | 85 | <59 | <69
8 | CCOC(=O)c1ccc(NCCCCCCCCCCCCCCCC(F)(F)F)cc1 | <72 | <83 | <75 | <75 | <41 | <47
< 38 | O=C(O)c1ccc(NCCCCCCCCCCCCCCCCS)cc1 | 101 | 96 | 101 | 67 | <40 | <45
0 | CCOC(=O)c1ccc(NCCCCCCCCCCCCCCCC(=O)OC)cc1 | 110 | 105 | 104 | 140 | 129 | 173
11 | CCCCCCCCCCCCCCCCN(CC(=O)OCC)c1ccc(C(=O)OC)cc1 | 100 | 106 | 104 | 113 | 104 | 97
< 59 | CC(C)(C)CCCCCCCCCCCCNc1ccc(C(=O)O)cc1 | <77 | 94 | <75 | <75 | <26 | <53
< 21 | CCOC(=O)c1ccc(NC(=O)CCCCCCCCCCCCC[Si](C)(C)C)cc1 | 98 | 99 | 101 | 99 | 97 | 91
< 57 | CCCCCCCCCCCCCCCCNc1ccc(C(=O)O)cc1 [CETABEN] | <71 | <72 | <54 | <71 | <31 | <45
18 | CCCCCCCCCCC(=O)CCCCCNc1ccc(C(=O)O)cc1 | 90 | 95 | <84 | <63 | <46 | <68
13 | CCCCCCCCCCC(Cl)CCCCCNc1ccc(C(=O)OCC)cc1 (stereo not given) | 91 | 98 | 94 | 82 | <53 | 84
13 | CCCCCCCCCCCCCCCCN(C(=O)CCC(=O)O)c1ccc(C(=O)O)cc1 | 105 | 111 | 88 | 84 | 117 | 90
